Tested on: HCV replicon (5-2 Luc replicon-comprising cells)
Assay: HCV replicon assay (luciferase)
Type: cell-based, Hepatitis C virus
Settings: 5-2 Luc replicon cells, luciferase readout; read-out: Replicon IC50
Source text: In one embodiment, the inhibitory activity of the compounds can be confirmed in a replicon assay that assesses the ability of a test compound to block or inhibit HCV replication in replicon cells. One example of a suitable replicon assay is the liver cell-line Huh 7-based replicon assay described in Lohmann et al., 1999, Science 285:110–113. A specific example of this replicon assay which utilizes luciferase translation is provided in the Examples Section. In one embodiment of this assay, the amount of test compound that yields a 50% reduction in translation as compared to a control cell (IC50) may be determined.
The inhibitory activity of certain exemplary compounds of the invention was confirmed using an HCV replicon assay. The HCV replicon can include such features as the HCV 5′ untranslated region including the HCV IRES, the HCV 3′ untranslated region, selected HCV genes encoding HCV polypeptides, selectable markers, and a reporter gene such as luciferase, GFP, etc. In the assay, actively dividing 5-2 Luc replicon-comprising cells (obtained from Ralf Bartenschlager; see Lohmann et al., 1999, Science 285:110–113) were seeded at a density of between about 5,000 and 7,500 cells/well onto 96 well plates (about 90 μl of cells per well) and incubated at 37° C. and 5% CO2 for 24 hours. Then, the test compound (in a volume of about 10 μl) was added to the wells at various concentrations and the cells were incubated for an additional 24 hours before luciferase assay. Briefly, the Bright-Glo reagent was diluted 1:1 with PBS and 100 μl of diluted reagent was added to each well. After 5 min of incubation at room temperature, luciferin emission was quantified with a luminometer. In this assay, the amount of test compound that yielded a 50% reduction in luciferase activity (IC50) was determined.
In TABLE 1, a value of “+” indicates an IC50 of 10 μM or less in the specified assay; a value of “−” indicates an IC50 of greater than 10 μM in the specified assay.

| SMILES | IC50 |
| --- | --- |
| CN(c1cccc(Cl)c1-c1cc(-c2cccc(NC(=O)C(Cl)Cl)c2)on1)C1CCN(S(C)(=O)=O)CC1 [Compound 583] | < 10 µM |
| CCNC(=O)N1CCC(N(C)c2cccc(Cl)c2-c2cc(-c3cccc(NC(=O)C(Cl)Cl)c3)on2)CC1 [Compound 584] | < 10 µM |
| CC(=O)N1CCCC(Oc2cccc(Cl)c2-c2cc(-c3cccc(NC(=O)C(Cl)Cl)c3)on2)C1 (stereo not shown) [Compound 585] | < 10 µM |
| CS(=O)(=O)N1CCCC(Oc2cccc(Cl)c2-c2cc(-c3cccc(NC(=O)C(Cl)Cl)c3)on2)C1 (stereo not shown) [Compound 586] | < 10 µM |
| CCNC(=O)N1CCCC(Oc2cccc(Cl)c2-c2cc(-c3cccc(NC(=O)C(Cl)Cl)c3)on2)C1 (stereo not shown) [Compound 587] | < 10 µM |
| O=C(Nc1cccc(-c2cc(-c3c(Cl)cccc3N3CCC(NCc4ccccn4)CC3)no2)c1)C(Cl)Cl [Compound 588] | < 10 µM |
| CC(C)(C)OC(=O)NCC1CCN(c2cccc(Cl)c2-c2cc(-c3cccc(NC(=O)C(Cl)Cl)c3)on2)CC1 [Compound 589] | < 10 µM |
| COC(=O)C1CC(Oc2cccc(Cl)c2-c2cc(-c3cccc(NC(=O)C(Cl)Cl)c3)on2)CN1C(=O)OC(C)(C)C (stereo not shown) [Compound 590] | < 10 µM |
| COC(=O)C1CC(Oc2cccc(Cl)c2-c2cc(-c3cccc(NC(=O)C(Cl)Cl)c3)on2)CN1 (stereo not shown) [Compound 591] | < 10 µM |
| CC(C)(C)OC(=O)N1CCC(Oc2cccc(Cl)c2-c2cc(-c3cccc(NC(=O)C(Cl)Cl)c3)on2)C1 (stereo not shown) [Compound 592] | < 10 µM |
| O=C(Nc1cccc(-c2cc(-c3c(Cl)cccc3OC3CCNC3)no2)c1)C(Cl)Cl (stereo not shown) [Compound 593] | < 10 µM |
| CC(=O)N1CCC(Oc2cccc(Cl)c2-c2cc(-c3cccc(NC(=O)C(Cl)Cl)c3)on2)C1 (stereo not shown) [Compound 595] | < 10 µM |
| CS(=O)(=O)N1CCC(Oc2cccc(Cl)c2-c2cc(-c3cccc(NC(=O)C(Cl)Cl)c3)on2)C1 (stereo not shown) [Compound 596] | < 10 µM |
| CCNC(=O)N1CCC(Oc2cccc(Cl)c2-c2cc(-c3cccc(NC(=O)C(Cl)Cl)c3)on2)C1 (stereo not shown) [Compound 597] | < 10 µM |
| C[N+](C)(C)CCOc1cccc(Cl)c1-c1cc(-c2cccc(NC(=O)C(Cl)Cl)c2)on1 [Compound 598] | < 10 µM |
| CCNC(=O)Oc1cccc(Cl)c1-c1cc(-c2cccc(NC(=O)C(Cl)Cl)c2)on1 [Compound 600] | < 10 µM |
| CN(C)C(=O)Oc1cccc(Cl)c1-c1cc(-c2cccc(NC(=O)C(Cl)Cl)c2)on1 [Compound 601] | < 10 µM |
| O=C(Nc1cccc(-c2cc(-c3c(Cl)cccc3OC(=O)N3CCOCC3)no2)c1)C(Cl)Cl [Compound 602] | < 10 µM |
| O=C(Nc1cccc(-c2cc(-c3c(Cl)cccc3OP(=O)(O)O)no2)c1)C(Cl)Cl [Compound 603] | < 10 µM |
| O=C(Nc1cccc(-c2cc(-c3c(Cl)cccc3OCc3ccncc3)no2)c1)C(Cl)Cl [Compound 604] | < 10 µM |
| O=C(Nc1cccc(-c2cc(-c3c(Cl)cccc3OCc3cccnc3)no2)c1)C(Cl)Cl [Compound 605] | < 10 µM |
| CCCNC(=O)Oc1cccc(Cl)c1-c1cc(-c2cccc(NC(=O)C(Cl)Cl)c2)on1 [Compound 606] | < 10 µM |
| COP(=O)(O)Oc1cccc(Cl)c1-c1cc(-c2cccc(NC(=O)C(Cl)Cl)c2)on1 [Compound 607] | < 10 µM |
| N#Cc1ccccc1-c1cc(-c2cccc(NC(=O)C(Cl)Cl)c2)on1 [Compound 610] | < 10 µM |
| CN1CCN(c2ccccc2-c2cc(-c3cccc(NC(=O)C(Cl)Cl)c3)on2)CC1 [Compound 611] | < 10 µM |
| O=C(Nc1cccc(-c2cc(-c3ccccc3N3CCOCC3)no2)c1)C(Cl)Cl [Compound 612] | < 10 µM |

| SMILES | IC50 |
| --- | --- |
| N#Cc1cccc(F)c1-c1cc(-c2cccc(NC(=O)C(Cl)Cl)c2)on1 [Compound 613] | < 10 µM |
| O=C(Nc1cccc(-c2cc(-c3ccccc3N3CCN(c4ccccn4)CC3)no2)c1)C(Cl)Cl [Compound 614] | > 10 µM |
| O=C(Nc1cccc(-c2cc(-c3c(Cl)cccc3N3CCC4(CC3)OCCO4)no2)c1)C(Cl)Cl [Compound 615] | < 10 µM |
| O=C(Nc1cccc(-c2cc(-c3c(Cl)cccc3N3CCSCC3)no2)c1)C(Cl)Cl [Compound 616] | < 10 µM |
| CC(=O)N1CCN(c2cccc(Cl)c2-c2cc(-c3cccc(NC(=O)C(Cl)Cl)c3)on2)CC1 [Compound 617] | < 10 µM |
| N#CC1(c2ccccc2)CCN(c2cccc(Cl)c2-c2cc(-c3cccc(NC(=O)C(Cl)Cl)c3)on2)CC1 [Compound 618] | < 10 µM |
| O=C(Nc1cccc(-c2cc(-c3c(Cl)cccc3N3CCN(c4ccc(Cl)cc4)CC3)no2)c1)C(Cl)Cl [Compound 619] | < 10 µM |
| O=C(Nc1cccc(-c2cc(-c3c(Cl)cccc3N3CCN(c4cccc(Cl)c4)CC3)no2)c1)C(Cl)Cl [Compound 620] | < 10 µM |
| O=C(Nc1cccc(-c2cc(-c3ccccc3CO)no2)c1)C(Cl)Cl [Compound 621] | < 10 µM |
| O=C(Nc1cccc(-c2cc(-c3c(Cl)cccc3N3CCN(C(=O)OCc4ccccc4)CC3)no2)c1)C(Cl)Cl [Compound 622] | < 10 µM |
| CCOC(=O)N1CCN(c2cccc(Cl)c2-c2cc(-c3cccc(NC(=O)C(Cl)Cl)c3)on2)CC1 [Compound 624] | < 10 µM |
| NC(=O)C1CCN(c2cccc(Cl)c2-c2cc(-c3cccc(NC(=O)C(Cl)Cl)c3)on2)CC1 [Compound 625] | < 10 µM |
| CCN1CCN(c2cccc(Cl)c2-c2cc(-c3cccc(NC(=O)C(Cl)Cl)c3)on2)CC1 [Compound 627] | < 10 µM |
| CN(C)C(=O)CN1CCN(c2cccc(Cl)c2-c2cc(-c3cccc(NC(=O)C(Cl)Cl)c3)on2)CC1 [Compound 628] | < 10 µM |
| CN(C)CCN1CCN(c2cccc(Cl)c2-c2cc(-c3cccc(NC(=O)C(Cl)Cl)c3)on2)CC1 [Compound 630] | < 10 µM |
| O=C(Nc1cccc(-c2cc(-c3c(Cl)cccc3N3CCN(CC(=O)N4CCOCC4)CC3)no2)c1)C(Cl)Cl [Compound 631] | < 10 µM |
| CC(C)N1CCN(c2cccc(Cl)c2-c2cc(-c3cccc(NC(=O)C(Cl)Cl)c3)on2)CC1 [Compound 632] | < 10 µM |
| CC(=O)N1CCC(COc2cccc(Cl)c2-c2cc(-c3cccc(NC(=O)C(Cl)Cl)c3)on2)CC1 [Compound 634] | < 10 µM |
| CN(Cc1cccnc1)c1cccc(Cl)c1-c1cc(-c2cccc(NC(=O)C(Cl)Cl)c2)on1 [Compound 635] | < 10 µM |
| O=C(Nc1cccc(-c2cc(-c3c(Cl)cccc3N3CCc4ccccc4C3)no2)c1)C(Cl)Cl [Compound 636] | < 10 µM |
| O=C(Nc1cccc(-c2cc(-c3c(Cl)cccc3N3CCC(Cc4ccccc4)CC3)no2)c1)C(Cl)Cl [Compound 637] | < 10 µM |
| O=C(Nc1cccc(-c2cc(-c3c(Cl)cccc3N3CCC(c4ccccc4)CC3)no2)c1)C(Cl)Cl [Compound 638] | < 10 µM |
| CC(C)(C)OC(=O)N1CCC(CCOc2cccc(Cl)c2-c2cc(-c3cccc(NC(=O)C(Cl)Cl)c3)on2)CC1 [Compound 639] | < 10 µM |
| O=C(Nc1cccc(-c2cc(-c3c(Cl)cccc3OCCC3CCNCC3)no2)c1)C(Cl)Cl [Compound 640] | < 10 µM |
| O=C(Nc1cccc(-c2cc(-c3c(Cl)cccc3N3CCN(C(=O)C4CCC4)CC3)no2)c1)C(Cl)Cl [Compound 641] | < 10 µM |
| O=C(Nc1cccc(-c2cc(-c3c(Cl)cccc3N3CCN(C(=O)c4ccccc4)CC3)no2)c1)C(Cl)Cl [Compound 642] | < 10 µM |

Source: patent publication US7115642B2, “Substituted diphenyl isoxazoles, pyrazoles and oxadiazoles useful for treating HCV infection” (priority 2003, dated 2006)
